Data reported in the supplement of paper PMC10307832.

What was measured:
Experiment in all cases: relative viability (nuclei count vs DMSO), 5 days (fraction); higher = more cells survive
Omipalisib + Linsitinib = compound: COc1ncc(-c2ccc3nccc(-c4ccnnc4)c3c2)cc1NS(=O)(=O)c1ccc(F)cc1F [Omipalisib] + C[C@]1(O)C[C@@H](c2nc(-c3ccc4ccc(-c5ccccc5)nc4c3)c3c(N)nccn32)C1 [Linsitinib] (partner 1 µM)
Procedure, shortened: (§1)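 Each reported value is a median over duplicate plates. It expresses relative viability: treated-well nuclei count divided by vehicle-well nuclei count. Lung cancer cell lines in 1536-well plates were dosed by pin tool a day after seeding, alone with one drug or with a fixed anchor-drug dose plus five library-drug doses (not always all listed) in √10 steps, and nuclei were counted after 5 days.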

Omipalisib + Olaparib = compound: COc1ncc(-c2ccc3nccc(-c4ccnnc4)c3c2)cc1NS(=O)(=O)c1ccc(F)cc1F [Omipalisib] + O=C(c1cc(Cc2n[nH]c(=O)c3ccccc23)ccc1F)N1CCN(C(=O)C2CC2)CC1 [Olaparib] (partner 8 µM)
Procedure, shortened: as §1

Omipalisib + Decitabine = compound: COc1ncc(-c2ccc3nccc(-c4ccnnc4)c3c2)cc1NS(=O)(=O)c1ccc(F)cc1F [Omipalisib] + Nc1ncn([C@H]2C[C@H](O)[C@@H](CO)O2)c(=O)n1 [Decitabine] (partner 2 µM)
Procedure, shortened: as §1

Omipalisib + Foretinib = compound: COc1ncc(-c2ccc3nccc(-c4ccnnc4)c3c2)cc1NS(=O)(=O)c1ccc(F)cc1F [Omipalisib] + COc1cc2c(Oc3ccc(NC(=O)C4(C(=O)Nc5ccc(F)cc5)CC4)cc3F)ccnc2cc1OCCCN1CCOCC1 [Foretinib] (partner 0.25 µM)
Procedure, shortened: as §1

Omipalisib + Pictilisib = compound: COc1ncc(-c2ccc3nccc(-c4ccnnc4)c3c2)cc1NS(=O)(=O)c1ccc(F)cc1F [Omipalisib] + CS(=O)(=O)N1CCN(Cc2cc3nc(-c4cccc5[nH]ncc45)nc(N4CCOCC4)c3s2)CC1 [Pictilisib] (partner 1 µM)
Procedure, shortened: as §1

Omipalisib + Alpelisib = compound: COc1ncc(-c2ccc3nccc(-c4ccnnc4)c3c2)cc1NS(=O)(=O)c1ccc(F)cc1F [Omipalisib] + Cc1nc(NC(=O)N2CCC[C@H]2C(N)=O)sc1-c1ccnc(C(C)(C)C(F)(F)F)c1 [Alpelisib] (partner 2 µM)
Procedure, shortened: as §1

Omipalisib + Lapatinib = compound: COc1ncc(-c2ccc3nccc(-c4ccnnc4)c3c2)cc1NS(=O)(=O)c1ccc(F)cc1F [Omipalisib] + CS(=O)(=O)CCNCc1ccc(-c2ccc3ncnc(Nc4ccc(OCc5cccc(F)c5)c(Cl)c4)c3c2)o1 [Lapatinib] (partner 2 µM)
Procedure, shortened: as §1

Omipalisib + Phenformin = compound: COc1ncc(-c2ccc3nccc(-c4ccnnc4)c3c2)cc1NS(=O)(=O)c1ccc(F)cc1F [Omipalisib] + N=C(N)NC(=N)NCCc1ccccc1 [Phenformin] (partner 250 µM)
Procedure, shortened: as §1

Omipalisib + Crizotinib = compound: COc1ncc(-c2ccc3nccc(-c4ccnnc4)c3c2)cc1NS(=O)(=O)c1ccc(F)cc1F [Omipalisib] + C[C@@H](Oc1cc(-c2cnn(C3CCNCC3)c2)cnc1N)c1c(Cl)ccc(F)c1Cl [Crizotinib] (partner 1 µM)
Procedure, shortened: as §1

Omipalisib + Navitoclax = compound: COc1ncc(-c2ccc3nccc(-c4ccnnc4)c3c2)cc1NS(=O)(=O)c1ccc(F)cc1F [Omipalisib] + CC1(C)CCC(c2ccc(Cl)cc2)=C(CN2CCN(c3ccc(C(=O)NS(=O)(=O)c4ccc(N[C@H](CCN5CCOCC5)CSc5ccccc5)c(S(=O)(=O)C(F)(F)F)c4)cc3)CC2)C1 [Navitoclax] (partner 0.5 µM)
Procedure, shortened: as §1

Omipalisib = compound: COc1ncc(-c2ccc3nccc(-c4ccnnc4)c3c2)cc1NS(=O)(=O)c1ccc(F)cc1F [Omipalisib]
Procedure, shortened: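 Vehicle-anchored 1536-well plates of lung cancer cell lines, held overnight at 37 °C, were pinned with five library-drug doses (not always all listed) spaced by √10. No medium change followed over the next 5 days, after which the cells were fixed, permeabilised and Hoechst-stained together and imaged at 4×. Nuclei were counted with MetaXpress, and viability is treated-well nuclei over vehicle-well nuclei, taken as a median across plates. Plates passed with control CV below 25% and at least one doubling.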

Omipalisib + Trametinib = compound: COc1ncc(-c2ccc3nccc(-c4ccnnc4)c3c2)cc1NS(=O)(=O)c1ccc(F)cc1F [Omipalisib] + CC(=O)Nc1cccc(-n2c(=O)n(C3CC3)c(=O)c3c(Nc4ccc(I)cc4F)n(C)c(=O)c(C)c32)c1 [Trametinib] (partner 0.02 µM)
Procedure, shortened: as §1

Omipalisib + Vorinostat = compound: COc1ncc(-c2ccc3nccc(-c4ccnnc4)c3c2)cc1NS(=O)(=O)c1ccc(F)cc1F [Omipalisib] + O=C(CCCCCCC(=O)Nc1ccccc1)NO [Vorinostat] (partner 1 µM)
Procedure, shortened: as §1

Omipalisib + Pemetrexed = compound: COc1ncc(-c2ccc3nccc(-c4ccnnc4)c3c2)cc1NS(=O)(=O)c1ccc(F)cc1F [Omipalisib] + Nc1nc2[nH]cc(CCc3ccc(C(=O)N[C@@H](CCC(=O)O)C(=O)O)cc3)c2c(=O)[nH]1 [Pemetrexed] (partner 0.2 µM)
Procedure, shortened: as §1

Omipalisib + Tozasertib = compound: COc1ncc(-c2ccc3nccc(-c4ccnnc4)c3c2)cc1NS(=O)(=O)c1ccc(F)cc1F [Omipalisib] + Cc1cc(Nc2cc(N3CCN(C)CC3)nc(Sc3ccc(NC(=O)C4CC4)cc3)n2)n[nH]1 [Tozasertib] (partner 0.1 µM)
Procedure, shortened: as §1

Omipalisib + OSI-027 = compound: COc1ncc(-c2ccc3nccc(-c4ccnnc4)c3c2)cc1NS(=O)(=O)c1ccc(F)cc1F [Omipalisib] + COc1cccc2cc(-c3nc([C@H]4CC[C@H](C(=O)O)CC4)n4ncnc(N)c34)[nH]c12 [OSI-027] (partner 0.5 µM)
Procedure, shortened: as §1

Omipalisib + AZD7762 = compound: COc1ncc(-c2ccc3nccc(-c4ccnnc4)c3c2)cc1NS(=O)(=O)c1ccc(F)cc1F [Omipalisib] + NC(=O)Nc1cc(-c2cccc(F)c2)sc1C(=O)N[C@H]1CCCNC1 [AZD7762] (partner 0.2 µM)
Procedure, shortened: as §1

Omipalisib + Palbociclib = compound: COc1ncc(-c2ccc3nccc(-c4ccnnc4)c3c2)cc1NS(=O)(=O)c1ccc(F)cc1F [Omipalisib] + CC(=O)c1c(C)c2cnc(Nc3ccc(N4CCNCC4)cn3)nc2n(C2CCCC2)c1=O [Palbociclib] (partner 0.5 µM)
Procedure, shortened: as §1

Omipalisib + Bortezomib = compound: COc1ncc(-c2ccc3nccc(-c4ccnnc4)c3c2)cc1NS(=O)(=O)c1ccc(F)cc1F [Omipalisib] + CC(C)C[C@H](NC(=O)[C@H](Cc1ccccc1)NC(=O)c1cnccn1)B(O)O [Bortezomib] (partner 0.002 µM)
Procedure, shortened: as §1

A549
relative viability (Omipalisib + Linsitinib; first compound 0.0003 µM): 0.438 | relative viability (Omipalisib + Linsitinib; first compound 0.003 µM): 0.421 | relative viability (Omipalisib + Linsitinib; first compound 0.03 µM): 0.218 | relative viability (Omipalisib + Olaparib; first compound 0.0003 µM): 0.206 | relative viability (Omipalisib + Olaparib; first compound 0.003 µM): 0.174 | relative viability (Omipalisib + Olaparib; first compound 0.03 µM): 0.0441 | relative viability (Omipalisib + Decitabine; first compound 0.0003 µM): 0.304 | relative viability (Omipalisib + Decitabine; first compound 0.003 µM): 0.224 | relative viability (Omipalisib + Decitabine; first compound 0.03 µM): 0.176 | relative viability (Omipalisib + Foretinib; first compound 0.0003 µM): 0.892 | relative viability (Omipalisib + Foretinib; first compound 0.003 µM): 0.838 | relative viability (Omipalisib + Foretinib; first compound 0.03 µM): 0.319 | relative viability (Omipalisib + Pictilisib; first compound 0.0003 µM): 0.457 | relative viability (Omipalisib + Pictilisib; first compound 0.003 µM): 0.454 | relative viability (Omipalisib + Pictilisib; first compound 0.03 µM): 0.254 | relative viability (Omipalisib + Alpelisib; first compound 0.0003 µM): 0.665 | relative viability (Omipalisib + Alpelisib; first compound 0.003 µM): 0.55 | relative viability (Omipalisib + Alpelisib; first compound 0.03 µM): 0.179 | relative viability (Omipalisib + Lapatinib; first compound 0.0003 µM): 0.912 | relative viability (Omipalisib + Lapatinib; first compound 0.003 µM): 0.715 | relative viability (Omipalisib + Lapatinib; first compound 0.03 µM): 0.227 | relative viability (Omipalisib + Phenformin; first compound 0.0003 µM): 0.157 | relative viability (Omipalisib + Phenformin; first compound 0.003 µM): 0.113 | relative viability (Omipalisib + Phenformin; first compound 0.03 µM): 0.0802 | relative viability (Omipalisib + Crizotinib; first compound 0.0003 µM): 0.64 | relative viability (Omipalisib + Crizotinib; first compound 0.003 µM): 0.531 | relative viability (Omipalisib + Crizotinib; first compound 0.03 µM): 0.139 | relative viability (Omipalisib + Navitoclax; first compound 0.0003 µM): 1.07 | relative viability (Omipalisib + Navitoclax; first compound 0.003 µM): 0.91 | relative viability (Omipalisib + Navitoclax; first compound 0.03 µM): 0.437 | relative viability (Omipalisib; 0.0003 µM): 0.923 | relative viability (Omipalisib; 0.003 µM): 0.625 | relative viability (Omipalisib; 0.03 µM): 0.323

NCI-H1648
relative viability (Omipalisib + Olaparib; first compound 0.0003 µM): 0.384 | relative viability (Omipalisib + Olaparib; first compound 0.003 µM): 0.392 | relative viability (Omipalisib + Olaparib; first compound 0.03 µM): 0.202 | relative viability (Omipalisib + Trametinib; first compound 0.0003 µM): 0.362 | relative viability (Omipalisib + Trametinib; first compound 0.003 µM): 0.407 | relative viability (Omipalisib + Trametinib; first compound 0.03 µM): 0.249 | relative viability (Omipalisib + Decitabine; first compound 0.0003 µM): 0.445 | relative viability (Omipalisib + Decitabine; first compound 0.003 µM): 0.363 | relative viability (Omipalisib + Decitabine; first compound 0.03 µM): 0.356 | relative viability (Omipalisib + Vorinostat; first compound 0.0003 µM): 0.548 | relative viability (Omipalisib + Vorinostat; first compound 0.003 µM): 0.396 | relative viability (Omipalisib + Vorinostat; first compound 0.03 µM): 0.228 | relative viability (Omipalisib + Pemetrexed; first compound 0.0003 µM): 0.754 | relative viability (Omipalisib + Pemetrexed; first compound 0.003 µM): 0.619 | relative viability (Omipalisib + Pemetrexed; first compound 0.03 µM): 0.413 | relative viability (Omipalisib + Tozasertib; first compound 0.0003 µM): 0.322 | relative viability (Omipalisib + Tozasertib; first compound 0.003 µM): 0.408 | relative viability (Omipalisib + Tozasertib; first compound 0.03 µM): 0.184 | relative viability (Omipalisib + OSI-027; first compound 0.0003 µM): 0.253 | relative viability (Omipalisib + OSI-027; first compound 0.003 µM): 0.291 | relative viability (Omipalisib + OSI-027; first compound 0.03 µM): 0.26 | relative viability (Omipalisib + AZD7762; first compound 0.0003 µM): 0.644 | relative viability (Omipalisib + AZD7762; first compound 0.003 µM): 0.843 | relative viability (Omipalisib + AZD7762; first compound 0.03 µM): 0.386 | relative viability (Omipalisib + Palbociclib; first compound 0.0003 µM): 0.277 | relative viability (Omipalisib + Palbociclib; first compound 0.003 µM): 0.23 | relative viability (Omipalisib + Palbociclib; first compound 0.03 µM): 0.29 | relative viability (Omipalisib; 0.0003 µM): 0.913 | relative viability (Omipalisib; 0.003 µM): 0.504 | relative viability (Omipalisib; 0.03 µM): 0.278

EBC-1
relative viability (Omipalisib + Linsitinib; first compound 0.0003 µM): 0.822 | relative viability (Omipalisib + Linsitinib; first compound 0.003 µM): 0.521 | relative viability (Omipalisib + Linsitinib; first compound 0.03 µM): 0.405 | relative viability (Omipalisib + Olaparib; first compound 0.0003 µM): 0.67 | relative viability (Omipalisib + Olaparib; first compound 0.003 µM): 0.57 | relative viability (Omipalisib + Olaparib; first compound 0.03 µM): 0.193 | relative viability (Omipalisib + Foretinib; first compound 0.0003 µM): 0.114 | relative viability (Omipalisib + Foretinib; first compound 0.003 µM): 0.102 | relative viability (Omipalisib + Foretinib; first compound 0.03 µM): 0.0896 | relative viability (Omipalisib + Pictilisib; first compound 0.0003 µM): 0.428 | relative viability (Omipalisib + Pictilisib; first compound 0.003 µM): 0.395 | relative viability (Omipalisib + Pictilisib; first compound 0.03 µM): 0.191 | relative viability (Omipalisib + Alpelisib; first compound 0.0003 µM): 0.906 | relative viability (Omipalisib + Alpelisib; first compound 0.003 µM): 0.692 | relative viability (Omipalisib + Alpelisib; first compound 0.03 µM): 0.259 | relative viability (Omipalisib + Bortezomib; first compound 0.0003 µM): 0.605 | relative viability (Omipalisib + Bortezomib; first compound 0.003 µM): 0.549 | relative viability (Omipalisib + Bortezomib; first compound 0.03 µM): 0.263 | relative viability (Omipalisib + Lapatinib; first compound 0.0003 µM): 0.211 | relative viability (Omipalisib + Lapatinib; first compound 0.003 µM): 0.216 | relative viability (Omipalisib + Lapatinib; first compound 0.03 µM): 0.202 | relative viability (Omipalisib + Crizotinib; first compound 0.0003 µM): 0.218 | relative viability (Omipalisib + Crizotinib; first compound 0.003 µM): 0.183 | relative viability (Omipalisib + Crizotinib; first compound 0.03 µM): 0.212 | relative viability (Omipalisib + Navitoclax; first compound 0.0003 µM): 0.337 | relative viability (Omipalisib + Navitoclax; first compound 0.003 µM): 0.243 | relative viability (Omipalisib + Navitoclax; first compound 0.03 µM): 0.137 | relative viability (Omipalisib; 0.0003 µM): 0.957 | relative viability (Omipalisib; 0.003 µM): 0.821 | relative viability (Omipalisib; 0.03 µM): 0.325
